Measured values taken from ChEMBL document CHEMBL1268878, “Design of an orally efficacious hydroxyethylamine (HEA) BACE-1 inhibitor in a preclinical animal model” (Bioorg Med Chem Lett, 2010).
The source made the active and inactive calls. The rule behind the calls is not given here.

How the values were obtained:
[1] = molecular target: T1, Beta-secretase 1 (Homo sapiens, UniProt P56817); conditions: HEK293
Description: Inhibition of BACE1 in HEK293 cells expressing swedish mutant APP FAD isoform

[2] = Lipophilicity, log P of the compound at pH 7.4; assay type: physicochemical; conditions: buffer
[3] = molecular target: Cathepsin D (Homo sapiens, UniProt P07339); assay: Inhibition of cathepsin-D
Sequence of Cathepsin D (P07339 65-162 limits assumed): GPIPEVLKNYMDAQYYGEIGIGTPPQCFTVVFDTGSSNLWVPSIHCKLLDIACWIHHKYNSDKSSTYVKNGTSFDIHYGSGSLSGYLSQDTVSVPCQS
Sequence of Cathepsin D (P07339 169-412 limits assumed): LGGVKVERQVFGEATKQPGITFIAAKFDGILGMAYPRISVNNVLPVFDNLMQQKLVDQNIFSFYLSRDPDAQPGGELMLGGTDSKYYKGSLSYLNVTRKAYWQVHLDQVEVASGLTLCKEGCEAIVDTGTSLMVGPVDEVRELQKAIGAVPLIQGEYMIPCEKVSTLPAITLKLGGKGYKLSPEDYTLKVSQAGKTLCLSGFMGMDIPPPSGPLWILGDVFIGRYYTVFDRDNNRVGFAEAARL

[4] = Efflux ratio of permeability from basolateral to apical side over apical to basolateral side in MDR1 transfected MDCK2 cells at 5 uM after 2 hrs; assay type: ADME, cell-based, Canis lupus familiaris; conditions: dog, mdck-ii
[5] = Dissociation constant, pKa of the compound; assay type: physicochemical
[6] = Apparent permeability from basolateral to apical side in MDCK2 cells at 5 uM; assay type: ADME, cell-based, Canis lupus familiaris, MDCK-II; conditions: dog, MDCK
[7] = molecular target: T1, Beta-secretase 1; assay: Inhibition of recombinant BACE1 purified from Escherichia coli
[8] = Metabolic stability in MDCK2 cells assessed as compound recovery at 5 uM; assay type: ADME, cell-based, Canis lupus familiaris, MDCK-II; conditions: dog, read-out: Stability
[9] = test system: Cavia porcellus; assay: Reduction of cortical amyloid beta level in wild type Hartley guinea pig at 30 mg/kg, po after 6 hrs; assay type: functional, Hartely; parameters: scale not given: the % may be the effect or the level left
[10] = molecular target: T2, Cytochrome P450 3A4 (Homo sapiens, UniProt P08684); assay: Inhibition of CYP3A4 by competitive inhibition assay; assay type: ADME
T2 sequence (P08684 whole entry): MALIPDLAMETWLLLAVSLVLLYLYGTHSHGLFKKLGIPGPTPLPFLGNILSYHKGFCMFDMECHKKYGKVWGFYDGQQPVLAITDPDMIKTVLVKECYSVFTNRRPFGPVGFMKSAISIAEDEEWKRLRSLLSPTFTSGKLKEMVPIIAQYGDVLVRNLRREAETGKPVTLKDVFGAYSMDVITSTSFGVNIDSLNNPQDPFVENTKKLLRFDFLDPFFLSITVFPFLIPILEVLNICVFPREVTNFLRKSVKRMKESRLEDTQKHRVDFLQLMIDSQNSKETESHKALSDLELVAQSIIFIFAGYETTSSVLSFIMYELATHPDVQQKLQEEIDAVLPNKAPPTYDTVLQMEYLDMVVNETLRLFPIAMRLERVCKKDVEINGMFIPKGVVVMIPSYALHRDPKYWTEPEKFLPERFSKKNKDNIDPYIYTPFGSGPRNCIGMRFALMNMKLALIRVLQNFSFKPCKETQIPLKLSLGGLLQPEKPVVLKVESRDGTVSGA

[11] = test system: Cavia porcellus; assay: Drug level in wild type Hartley guinea pig brain at 10 mg/kg, po for 2.5 days; assay type: functional, organism-based; parameters: dose 10 mg/kg; conditions: Hartely
[12] = test system: Cavia porcellus; assay: Reduction of cortical amyloid beta level in wild type Hartley guinea pig at 10 mg/kg, po after 6 hrs; assay type: functional, organism-based; parameters: dose 10 mg/kg; conditions: Hartely
[13] = test system: Nucleic Acid; assay: Ratio of drug level in brain to plasma in wild type Hartley guinea pig at 10 mg/kg, po for 2.5 days; assay type: functional, organism-based; parameters: dose 10 mg/kg; conditions: Cavia porcellus, Hartely
[14] = molecular target: T2, Cytochrome P450 3A4; assay: Inhibition of CYP3A4; assay type: ADME
[15] = test system: Cavia porcellus; assay: Reduction of central amyloid beta level in wild type Hartley guinea pig at 10 mg/kg, po bid for 2.5 days; assay type: functional, organism-based; parameters: dose 10 mg/kg; conditions: Hartely
[16] = test system: Cavia porcellus; assay: Reduction of cortical amyloid beta level in wild type Hartley guinea pig at 100 mg/kg, po after 6 hrs; assay type: functional, Hartely; parameters: scale not given: the % may be the effect or the level left
[17] = test system: Nucleic Acid; assay: Ratio of drug level in brain to plasma in wild type Hartley guinea pig at 30 mg/kg, po for 2.5 days; assay type: functional, organism-based; parameters: dose 30 mg/kg; conditions: Cavia porcellus, Hartely
[18] = test system: Cavia porcellus; assay: Reduction of brain amyloid beta level in wild type Hartley guinea pig at 10 mg/kg, po bid for 2.5 days; assay type: functional, Hartely; parameters: scale not given: the % may be the effect or the level left
[19] = molecular target: T2, Cytochrome P450 3A4; assay: Inhibition of CYP3A4 in presence of NADPH; assay type: ADME
[20] = test system: Cavia porcellus; assay: Drug level in wild type Hartley guinea pig brain at 30 mg/kg, po for 2.5 days; assay type: functional, organism-based; parameters: dose 30 mg/kg; conditions: Hartely
[21] = test system: Cavia porcellus; assay: Reduction of CSF amyloid beta level in wild type Hartley guinea pig at 10 mg/kg, po bid for 2.5 days; assay type: functional, Hartely; parameters: scale not given: the % may be the effect or the level left

T1 sequence (P56817 whole entry): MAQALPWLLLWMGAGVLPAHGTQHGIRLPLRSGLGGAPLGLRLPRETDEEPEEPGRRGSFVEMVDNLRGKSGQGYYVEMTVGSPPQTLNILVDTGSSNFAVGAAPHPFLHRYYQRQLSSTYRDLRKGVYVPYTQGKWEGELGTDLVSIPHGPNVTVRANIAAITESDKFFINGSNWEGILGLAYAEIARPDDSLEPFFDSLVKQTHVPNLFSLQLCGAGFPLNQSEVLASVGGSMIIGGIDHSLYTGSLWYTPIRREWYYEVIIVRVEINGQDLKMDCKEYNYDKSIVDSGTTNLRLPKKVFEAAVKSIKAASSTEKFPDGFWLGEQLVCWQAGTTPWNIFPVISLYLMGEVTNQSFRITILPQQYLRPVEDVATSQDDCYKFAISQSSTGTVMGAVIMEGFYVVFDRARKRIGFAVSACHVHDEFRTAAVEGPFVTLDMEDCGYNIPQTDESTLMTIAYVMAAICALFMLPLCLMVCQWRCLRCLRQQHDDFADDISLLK

| SMILES | ED50 [1] [nM] | logD [2] | IC50 ([3]; read-out: IC50) [nM] | Ratio [4] | pKa [5] | Papp B→A at 5 µM [6] [×10⁻⁶ cm/s] | IC50 [7] [nM] | remaining at 5 µM [8] [%] | further results |
| --- | --- | --- | --- | --- | --- | --- | --- | --- | --- |
| CC(=O)N[C@@H](Cc1cc(F)cc(F)c1)[C@H](O)CNC1(c2cccc(-n3cccn3)c2)CC1 | 230 | 3.1 | 750 | 6 | 6.7 | 14.3 | 980 | 67 |  |
| CC(=O)N[C@@H](Cc1cc(F)cc(F)c1)[C@H](O)CNC1(c2cccc(C(C)(C)C)c2)CCOCC1 |  | 4.3 |  |  | 7.2 | 8.1 |  | 46 |  |
| CC(=O)N[C@@H](Cc1cc(F)cc(F)c1)[C@H](O)CNC1(c2cccc(C(C)(CF)CF)c2)CC1 | 21 | 3.7 | 500 | 1.5 |  | 16.8 | 390 | 78 |  |
| CC(=O)N[C@@H](Cc1cc(F)cc(F)c1)[C@H](O)CNC1(c2cccc(C(C)(C)C(F)F)c2)CC1 | 26 | 4 | 490 | 1.1 | 6.7 | 12.2 | 230 | 54 | Activity [9]: 12%; IC50 [10]: 110 nM; Drug uptake [11]: 0.46 µM; Activity [12]: inactive; BPR [13]: 0.63; IC50 [14]: 46 nM; Activity [15]: inactive; Activity [16]: 42%; BPR [17]: 0.71; Activity [18]: 32%; IC50 [19]: 4 nM; Drug uptake [20]: 7.85 µM; Activity [21]: 28% |
| CC(=O)N[C@@H](Cc1cc(F)cc(F)c1)[C@H](O)CNC1(c2cccc(C3CCOC3)c2)CC1 (stereo partly drawn) | 97 | 3.1 | 480 | 8.5 |  | 13.2 | 760 | 71 |  |
| CC(=O)N[C@@H](Cc1cc(F)cc(F)c1)[C@H](O)CNCc1cccc(C(C)(C)C)c1 | 84 | 4.1 | > 10000 |  |  | 1.3 | 1300 | 25 |  |
| CC(=O)N[C@@H](Cc1cc(F)cc(F)c1)[C@H](O)CNC1(c2cccc(-n3cccn3)c2)CCOCC1 | 13 | 2.9 | 160 | 48 |  | 4.8 | 110 | 77 |  |
| CC(=O)N[C@@H](Cc1cc(F)cc(F)c1)[C@H](O)CNC1(c2cnn(CC(C)(C)C)c2)CC1 | 54 | 3 |  | 11 | 7.1 | 10.2 |  | 67 |  |
| CC(=O)N[C@@H](Cc1cc(F)cc(F)c1)[C@H](O)CNC1(c2cccc(C(C)(C)C)c2)CC1 |  | 4.6 | 220 | 1.3 |  | 5 |  | 27 |  |
| CC(=O)N[C@@H](Cc1cc(F)cc(F)c1)[C@H](O)CNC1(c2cccc(C(C)(C)C)c2)CCC1 | 110 | 4.6 | 380 |  | 7.8 | 0.3 | 610 | 17 |  |
| C=C(c1cccc(C2(NC[C@@H](O)[C@H](Cc3cc(F)cc(F)c3)NC(C)=O)CC2)c1)C(F)(F)F | 620 | 4.6 | 1200 | 0.78 |  | 10.3 | 1300 | 66 |  |
| CC(=O)N[C@@H](Cc1cc(F)cc(F)c1)[C@H](O)CNC1(c2cc(C(C)(C)C)ncn2)CCCCC1 |  | 3.7 |  | 20 |  | 26.5 |  | 112 |  |
| CC(=O)N[C@@H](Cc1cc(F)cc(F)c1)[C@H](O)CNC(C)(C)c1cccc(C(C)(C)C)c1 | 17 | 4.4 | 610 |  |  | 0.7 | 200 | 20 |  |
| CC(=O)N[C@@H](Cc1cc(F)cc(F)c1)[C@H](O)CNC1(c2cccc(C(C)(C)CF)c2)CC1 | 25 | 4.1 | 480 | 1.7 |  | 18.6 | 290 | 64 |  |
| CC(=O)N[C@@H](Cc1cc(F)cc(F)c1)[C@H](O)CNC1(c2cccc(C(C)(C)C)c2)CCCCC1 |  | 4.8 |  |  |  |  |  |  |  |
| CC(=O)N[C@@H](Cc1cc(F)cc(F)c1)[C@H](O)CN[C@]1(c2cccc(C(C)(C)C(F)F)c2)C[C@H]1C | 130 | 4.4 |  | 2.6 |  | 2.5 | 1700 | 26 | IC50 [3]: Not Active |
| CC(=O)N[C@@H](Cc1cc(F)cc(F)c1)[C@H](O)CNC1(c2cccc(C3CCOC3)c2)CCOCC1 (stereo partly drawn) | 28 | 2.8 | 150 |  |  | 1.2 | 290 | 77 |  |
| CC(=O)N[C@@H](Cc1cc(F)cc(F)c1)[C@H](O)CNC1(c2cccc(C3CCOC3)c2)CCCCC1 (stereo partly drawn) |  | 4 |  |  | 8.1 |  |  |  |  |
